Measurements published in patent publication EP0877740B1, “THIOL DERIVATIVES WITH METALLOPEPTIDASE INHIBITORY ACTIVITY” (ZAMBON GROUP S.p.A., priority 1995, dated 1997).

What was measured:
ACE = target: T1, ACE (Oryctolagus cuniculus, UniProt P12822); experiment: In vitro ACE-inhibitory activity (FAPGG substrate, spectrophotometric); format: biochemical; conditions: ACE purified by lung rabbit, FAPGG 0.8 mM, 37°C
T1 construct: ACE (250 mU/ml purified by lung rabbit, EC 3.4.15.1 SIGMA); purchased SIGMA; host or cells: rabbit lung (tissue-purified)
T1 sequence (P12822 34-1310): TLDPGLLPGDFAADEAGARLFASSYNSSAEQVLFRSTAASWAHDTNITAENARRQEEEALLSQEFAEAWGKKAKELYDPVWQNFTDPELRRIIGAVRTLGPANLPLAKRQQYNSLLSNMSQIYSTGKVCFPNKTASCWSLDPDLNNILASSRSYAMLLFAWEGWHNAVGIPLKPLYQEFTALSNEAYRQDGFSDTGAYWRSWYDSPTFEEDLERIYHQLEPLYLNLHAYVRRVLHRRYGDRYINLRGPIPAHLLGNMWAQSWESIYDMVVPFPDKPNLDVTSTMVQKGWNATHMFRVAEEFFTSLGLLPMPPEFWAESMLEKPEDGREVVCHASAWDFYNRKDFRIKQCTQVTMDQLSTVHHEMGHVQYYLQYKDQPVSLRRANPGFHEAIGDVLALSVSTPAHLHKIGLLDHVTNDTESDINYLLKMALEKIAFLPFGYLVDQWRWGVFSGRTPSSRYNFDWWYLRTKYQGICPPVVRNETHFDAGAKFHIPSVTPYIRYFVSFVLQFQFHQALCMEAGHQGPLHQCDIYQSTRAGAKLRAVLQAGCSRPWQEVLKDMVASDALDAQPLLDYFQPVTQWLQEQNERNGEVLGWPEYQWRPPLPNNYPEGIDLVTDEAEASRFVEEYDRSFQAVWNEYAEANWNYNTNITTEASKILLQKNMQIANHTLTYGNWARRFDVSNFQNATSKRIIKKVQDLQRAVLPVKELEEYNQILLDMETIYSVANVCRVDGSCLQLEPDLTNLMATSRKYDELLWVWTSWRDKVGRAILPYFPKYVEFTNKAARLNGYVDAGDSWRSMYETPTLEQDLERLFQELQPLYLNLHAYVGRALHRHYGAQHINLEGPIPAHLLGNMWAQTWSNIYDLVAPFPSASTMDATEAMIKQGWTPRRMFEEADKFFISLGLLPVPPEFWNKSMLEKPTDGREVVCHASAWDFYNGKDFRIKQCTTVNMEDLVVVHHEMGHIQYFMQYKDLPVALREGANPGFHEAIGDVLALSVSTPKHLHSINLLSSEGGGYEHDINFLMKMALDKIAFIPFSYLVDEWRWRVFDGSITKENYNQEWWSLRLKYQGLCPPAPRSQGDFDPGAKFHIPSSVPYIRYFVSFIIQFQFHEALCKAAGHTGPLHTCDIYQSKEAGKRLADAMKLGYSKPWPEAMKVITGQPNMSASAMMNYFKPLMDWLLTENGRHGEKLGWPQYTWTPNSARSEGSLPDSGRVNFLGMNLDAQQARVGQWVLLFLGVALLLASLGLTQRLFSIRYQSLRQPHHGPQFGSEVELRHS
Description: […] of ACE (250 mU/ml purified by lung rabbit, EC 3.4.15.1 SIGMA) were preincubated with 50 µl of the compound of formula I or of the reference compound or related vehicle in thermostated cuvettes at 37°C.
The reaction was started by adding furylacryloylphenylalanylglycylglycine 0.8 mM (FAPGG-SIGMA).
Contemporaneously, by using a Beckman DU-50 spectrophotometer provided with a program for calculating delta A/minutes and regression coefficients of the enzyme kinetics curves, the absorbance at 340 nm was recorded in continuo for 5 minutes.
The percentage of the enzyme inhibition in the preparations treated with the compounds of formula I or with the comparative compounds with respect to the untreated preparations was expressed as IC50 (nM) value.

NEP = target: T2, NEP (Rattus norvegicus, UniProt P07861); experiment: In vitro NEP-inhibitory activity in rat kidney cortex membranes ([3H][Leu5]-enkephaline hydrolysis); format: biochemical; design: Kidneys were removed from male Sprague-Dawley rats weighing approximately 300 g; from tissue; host or cells: rat kidney cortex membranes (male Sprague-Dawley); conditions: [3H][Leu5]-enkephaline 15 nM, 30°C
T2 sequence (P07861 1-750): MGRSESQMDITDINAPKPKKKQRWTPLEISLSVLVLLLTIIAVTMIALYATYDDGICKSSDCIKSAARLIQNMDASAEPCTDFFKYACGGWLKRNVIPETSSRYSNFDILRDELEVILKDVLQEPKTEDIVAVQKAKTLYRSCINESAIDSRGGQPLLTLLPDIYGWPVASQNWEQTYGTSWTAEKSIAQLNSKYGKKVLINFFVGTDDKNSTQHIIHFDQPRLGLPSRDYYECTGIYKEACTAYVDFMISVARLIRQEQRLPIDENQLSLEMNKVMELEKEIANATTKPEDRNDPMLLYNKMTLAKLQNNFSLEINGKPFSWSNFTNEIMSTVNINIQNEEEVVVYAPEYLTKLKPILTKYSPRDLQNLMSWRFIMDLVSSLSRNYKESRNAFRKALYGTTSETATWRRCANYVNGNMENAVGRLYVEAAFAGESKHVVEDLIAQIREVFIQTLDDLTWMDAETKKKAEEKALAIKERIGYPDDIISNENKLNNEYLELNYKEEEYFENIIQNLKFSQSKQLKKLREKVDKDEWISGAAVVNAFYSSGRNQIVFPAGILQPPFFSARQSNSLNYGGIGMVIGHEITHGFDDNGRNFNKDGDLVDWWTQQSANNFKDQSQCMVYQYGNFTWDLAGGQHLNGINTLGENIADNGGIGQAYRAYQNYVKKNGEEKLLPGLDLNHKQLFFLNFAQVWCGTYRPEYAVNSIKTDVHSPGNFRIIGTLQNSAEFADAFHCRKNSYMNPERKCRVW
Description: The NEP-inhibitory activity was evaluated in rat kidney cortex membranes prepared according to the procedure described by T. Maeda et al. in Biochim. Biophys.
Kidneys were removed from male Sprague-Dawley rats weighing approximately 300 g and kept at 4°C.
Kidney cortex was carefully dissected, finely minced and suspended in a homogenization buffer (10 mM sodium phosphate pH 7.4 containing 1 mM MgCl2, 30 mM NaCl, 0.02% NaN3) 1:15 weight/volume.
The tissue was then cold homogenized for 30 seconds using an Ultra-Turrax homogenizer.
The membranes were collected from the buffer/sucrose interface, washed twice with 50 mM TRIS/HCl buffer (pH 7.4) and resuspended into the same buffer for storage in small aliquots at -80°C until use.
The NEP-inhibitory activity was evaluated by using the method described by C.
Aliquots of the membrane suspension prepared as above described (concentration 5 µg/ml of proteins) were preincubated in the presence of an aminopeptidase inhibitor (Bestatin - 1 mM) for 10 minutes at 30°C.
Incubation (20 minutes at 30°C) was stopped by adding HCI 0.1M (100 µl).
The formation of the metabolite [^3H]Tyr-Gly-Gly was quantified by chromatography on polystyrene columns (Porapak Q).
The percentage of inhibition of the metabolite formation in the membrane preparations treated with the compounds of formula I and with the comparative compounds with respect to the untreated membrane preparations was expressed as IC50 (nM) value.

| Structure (SMILES) | IC50 (ACE) [nM] | IC50 (NEP) [nM] | NEP-inhibitory activity IC50 (nM) (NEP) |
| --- | --- | --- | --- |
| Cc1cc(CC(CS)C(=O)N[C@@H](Cc2ccc(-c3nccs3)cc2)C(=O)O)on1 (stereo partly drawn) [Compound 33, N-[3-mercapto-2-(3-methyl-5-isoxazolyl)methyl-propionyl]-4-(2-thiazolyl)-L-phenylalanine] | 7.9 | 4.5 | – |
| O=C(N[C@@H](Cc1ccc(-c2cncnc2)cc1)C(=O)O)[C@@H](CS)Cc1ccccc1 [Compound 19, N-[(2S)-3-mercapto-2-phenylmethylpropionyl]-4-(5-pyrimidinyl)-L-phenylalanine] | 1.9 | 1.8 | – |
| C[C@H](CS)C(=O)N1CCC[C@H]1C(=O)O [Captopril, reference compound] | – | – | not active |
| O=C(N[C@@H](Cc1ccc(-c2ccsc2)cc1)C(=O)O)[C@@H](CS)Cc1ccccc1 [Compound 24, N-[(2S)-3-mercapto-2-phenylmethylpropionyl]-4-(3-thienyl)-L-phenylalanine] | 2.5 | 1.3 | – |
| O=C(N[C@@H](Cc1ccc(-c2ccoc2)cc1)C(=O)O)[C@@H](CS)Cc1ccccc1 [Compound 25, N-[(2S)-3-mercapto-2-phenylmethylpropionyl]-4-(3-furyl)-L-phenylalanine] | 2.4 | 1 | – |
| O=C(N[C@@H](Cc1ccc(-c2nccs2)cc1)C(=O)O)C(CS)Cc1ccccc1F (stereo partly drawn) [Compound 30, N-[3-mercapto-2-(2-fluorophenyl)methyl-propionyl]-4-(2-thiazolyl)-L-phenylalanine] | 10.7 | 11.2 | – |
| O=C(N[C@@H](Cc1ccc(-c2nccs2)cc1)C(=O)O)C(CS)Cc1ccco1 (stereo partly drawn) [Compound 32, N-[3-mercapto-2-(2-furyl)methyl-propionyl]-4-(2-thiazolyl)-L-phenylalanine] | 8.6 | 4 | – |
| O=C(N[C@@H](Cc1ccc(-c2nccs2)cc1)C(=O)O)C(CS)Cc1cccs1 (stereo partly drawn) [Compound 31, N-[3-mercapto-2-(2-thienyl)methyl-proionyl]-4-(2-thiazolyl)-L-phenylalanine] | 8.6 | 1.2 | – |
| COc1cccc(CC(CS)C(=O)N[C@@H](Cc2ccc(-c3nccs3)cc2)C(=O)O)c1 (stereo partly drawn) [Compound 29, N-[3-mercapto-2-(3-methoxyphenyl)methyl-propionyl]-4-(2-thiazolyl)-L-phenylalanine] | 4.6 | 9 | – |
| O=C(N[C@@H](Cc1ccc(-c2nccs2)cc1)C(=O)O)C(CS)Cc1cccnc1 (single isomer, unassigned) [Compound 27, N-[3-mercapto-2-(3-pyridylmethyl)propionyl]-4-(2-thiazolyl)-L-phenylalanine] | 9.1 | 17.3 | – |
| CC(C)CC(CS)C(=O)N[C@@H](Cc1ccc(-c2nccs2)cc1)C(=O)O (stereo partly drawn) [Compound 28, N-(2-isobutyl-3-mercapto-propionyl)-4-(2-thiazolyl)-L-phenylalanine] | 5.8 | 1.8 | – |

Other lines, results leading:

| IC50 (ACE) [nM] | IC50 (NEP) [nM] | NEP-inhibitory activity IC50 (nM) (NEP) | Structure (SMILES) |
| --- | --- | --- | --- |
| 1.5 | 2.5 | – | O=C(N[C@@H](Cc1ccc(-c2cnccn2)cc1)C(=O)O)[C@@H](CS)Cc1ccccc1 [Compound 20, N-[(2S)-3-mercapto-2-phenylmethylpropionyl]-4-(2-pyrazinyl)-L-phenylalanine] |
| 1.6 | 0.6 | – | O=C(N[C@@H](Cc1ccc(-c2cccs2)cc1)C(=O)O)[C@@H](CS)Cc1ccccc1 [Compound 23, N-[(2S)-3-mercapto-2-phenylmethylpropionyl]-4-(2-thienyl)-L-phenylalanine] |
| 1.8 | 1.8 | – | O=C(N[C@@H](Cc1ccc(-c2ccco2)cc1)C(=O)O)[C@@H](CS)Cc1ccccc1 [Compound 18, N-[(2S)-3-mercapto-2-phenylmethylpropionyl]-4-(2-furyl)-L-phenylalanine] |
| 1.8 | 2 | – | O=C(N[C@@H](Cc1ccc(-c2ccccn2)cc1)C(=O)O)[C@@H](CS)Cc1ccccc1 [Compound 22, N-[(2S)-3-mercapto-2-phenylmethylpropionyl]-4-(2-pyridyl)-L-phenylalanine] |
| 1.7 | 2.6 | – | O=C(N[C@@H](Cc1ccc(-c2cccnc2)cc1)C(=O)O)[C@@H](CS)Cc1ccccc1 [Compound 21, N-[(2S)-3-mercapto-2-phenylmethylpropionyl]-4-(3-pyridyl)-L-phenylalanine] |
